Measured values as given in PMC12520456, “Regulating Enzyme Activity via Microaggregates Mediated by Phase Separation” (Advanced Science, 2025).
Non-standard residues stand in square brackets, D forms with d. Residues, ends and D or L forms follow the SMILES beside them.

Legend:
Experiment in all cases: Fluorescence anisotropy specificity test
Format in all cases: binding
[1] = test system: IgG; conditions: fluorescently labeled DPMD; Figure S3I
Method: (§1) To validate the design, DPMD was synthesized using solid‐phase synthesis employing HOBt/HBTU and Fmoc chemistry, following a sequence schematic diagram depicted in Figure 1A. Subsequently, a single reverse column purification by High‐performance liquid chromatography (HPLC) yielded DPMD with purity exceeding 95% at a yield surpassing 60% (Figure S1B, Supporting Information). Circular dichroism (CD) spectra were recorded for a 40 µM DPMD sample in an aqueous solution containing 20% TFE at room temperature. The use of 20% TFE was necessary to obtain a clear spectrum, as it enhances peptide solubility and stabilizes secondary structure.^[ [9] ^] […] To further confirm that DPMD's enzymatic targeting is specific and not a broad‐spectrum protein aggregation effect, we tested DPMD against other pancreatic enzymes and abundant plasma proteins. Fluorescently labeled DPMD was mixed with elastase, pancreatic lipase, α‐amylase, carboxypeptidase A, bovine serum albumin (BSA), and IgG, respectively, and fluorescence anisotropy was measured to detect binding. […] For example, anisotropy values for DPMD + elastase (or lipase, amylase, etc.) remained near the baseline (DPMD‐alone) level, whereas DPMD + trypsin produced a pronounced anisotropy elevation (reflecting peptide‐enzyme complex formation and microaggregate assembly).
(§2) Figure S3. […]
(§3) (D-H) The fluorescent anisotropy
(§4) evaluation of binding affinity between DPMD peptide with elastase (D), lipase (E), amylase(F), carboxypeptidase
(§5) (G), albumin (H) and immunoglobulins (I). […]

[2] = molecular target: T1, bovine serum albumin (BSA) (Bos taurus, UniProt P02769); conditions: fluorescently labeled DPMD; Figure S3H
T1 construct: purchased Psaitong Biotechnology
Method: as §1, §2, §3, §4, §5

[3] = test system: carboxypeptidase A; conditions: fluorescently labeled DPMD; Figure S3G
Method: as §1, §2, §3, §4, §5

[4] = molecular target: T2, elastase (Sus scrofa, UniProt P00772); conditions: fluorescently labeled DPMD; Figure S3D
T2 construct: purchased Sangon
Method: as §1, §2, §3, §4, §5

[5] = molecular target: T3, pancreatic lipase (Sus scrofa, UniProt P00591); conditions: fluorescently labeled DPMD; Figure S3E
T3 construct: purchased Macklin
T3 sequence (P00591 1-450): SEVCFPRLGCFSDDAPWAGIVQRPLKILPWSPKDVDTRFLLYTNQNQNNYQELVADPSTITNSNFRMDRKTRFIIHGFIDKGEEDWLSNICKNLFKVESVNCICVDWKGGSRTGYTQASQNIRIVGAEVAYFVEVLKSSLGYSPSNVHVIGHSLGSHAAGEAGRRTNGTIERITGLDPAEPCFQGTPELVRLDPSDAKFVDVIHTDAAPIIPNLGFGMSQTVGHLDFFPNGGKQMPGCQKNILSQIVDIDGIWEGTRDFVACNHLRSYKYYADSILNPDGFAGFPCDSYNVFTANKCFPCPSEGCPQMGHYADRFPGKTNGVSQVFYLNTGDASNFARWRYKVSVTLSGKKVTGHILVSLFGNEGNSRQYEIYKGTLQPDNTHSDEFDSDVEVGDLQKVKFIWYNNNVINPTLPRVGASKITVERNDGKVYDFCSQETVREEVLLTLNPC
Method: as §1, §2, §3, §4, §5

[6] = test system: α-amylase; conditions: fluorescently labeled DPMD; Figure S3F
Method: as §1, §2, §3, §4, §5

T1 sequence (P02769 25-607): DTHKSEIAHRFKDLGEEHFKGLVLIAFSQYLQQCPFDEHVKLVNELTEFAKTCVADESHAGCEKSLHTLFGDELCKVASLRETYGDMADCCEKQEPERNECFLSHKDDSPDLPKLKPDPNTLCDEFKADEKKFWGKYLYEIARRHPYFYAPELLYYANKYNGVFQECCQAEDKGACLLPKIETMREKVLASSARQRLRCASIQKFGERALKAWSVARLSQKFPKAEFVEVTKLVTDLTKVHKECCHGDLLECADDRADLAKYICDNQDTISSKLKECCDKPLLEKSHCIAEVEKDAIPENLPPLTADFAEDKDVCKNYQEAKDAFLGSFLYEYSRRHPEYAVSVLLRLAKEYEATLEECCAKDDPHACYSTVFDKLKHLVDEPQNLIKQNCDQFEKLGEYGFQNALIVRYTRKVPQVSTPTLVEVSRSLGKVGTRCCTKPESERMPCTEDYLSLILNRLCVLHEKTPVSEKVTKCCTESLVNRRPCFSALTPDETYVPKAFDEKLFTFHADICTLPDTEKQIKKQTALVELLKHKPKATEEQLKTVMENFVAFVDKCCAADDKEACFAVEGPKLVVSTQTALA
T2 sequence (P00772 27-266): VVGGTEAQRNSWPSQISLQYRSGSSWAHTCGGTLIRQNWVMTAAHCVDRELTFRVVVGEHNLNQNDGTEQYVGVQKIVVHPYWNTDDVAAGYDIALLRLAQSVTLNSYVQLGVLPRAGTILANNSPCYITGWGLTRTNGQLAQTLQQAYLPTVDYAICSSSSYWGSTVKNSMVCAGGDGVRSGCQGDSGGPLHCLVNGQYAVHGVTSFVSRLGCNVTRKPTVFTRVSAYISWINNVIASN

CC[C@@H](C)[C@@H](NC(=O)[C@@H](CCC(N)=O)NC(=O)[C@H](NC(=O)[C@@H](Cc1ccc(O)cc1)NC(=O)CNC(=O)[C@@H](CC(C)C)NC(=O)[C@H](NC(=O)[C@@H](CO)NC(=O)CNC(=O)[C@@H](C)NC(=O)[C@@H](CC(=O)O)NC(=O)[C@@H](C)NC(=O)[C@@H](CCCNC(=N)N)NC(=O)[C@@H](C)NC(=O)[C@@H](CC(=O)O)NC(=O)[C@@H](C)NC(=O)[C@@H](CCCNC(=N)N)NC(=O)[C@@H](C)NC(=O)[C@@H](CC(=O)O)NC(=O)[C@@H](C)NC(=O)[C@@H](CCCNC(=N)N)NC(=O)[C@@H](C)NC(=O)[C@@H](CC(=O)O)NC(=O)[C@@H](C)NC(=O)[C@H](N)CCCNC(=N)N)C(C)C)[C@H](C)CC)C(=O)N[C@H](CCCNC(=N)N)C(=O)O [DPMD, Ac‐(D‐RADA)4‐CONH2] (H-[dR][dA][dD][dA][dR][dA][dD][dA][dR][dA][dD][dA][dR][dA][dD][dA]G[dS][dV][dL]G[dY][dI][dQ][dI][dR]-OH; N-terminus and C-terminus assumed)
no significant anisotropy increase: anisotropy increase with IgG [1] | anisotropy increase with BSA [2] | anisotropy increase with carboxypeptidase A [3] | anisotropy increase with elastase [4] | anisotropy increase with pancreatic lipase [5] | anisotropy increase with α-amylase [6]
